US8974793B2, “Methods and systems for inducing immunologic tolerance to non-self antigens” (The Governors Of The University Of Alberta, priority 2008, dated 2015)

Assay: Blood plasma stability of A type I antigen functionalized silica-coated stainless steel (modified ELISA readout)
Format: in vitro ADME, pig
Settings: I-14 bound to silica-coated stainless steel, 12 days agitation
Description: Several silica-coated stainless steel samples bearing the A type I antigen were prepared, according to the general procedure defined above. Each of the samples was placed in three different types of pig blood plasma (blood group O, blood group A and commercial pooled blood group O plasma). The samples were agitated on a shaker table for 12 days. After 12 days, the samples were removed from the pig blood plasma and placed in ethanol.
Each silica-coated stainless steel stent surface was treated with a solution of 2% BSA in PBST (200 μL) and shaken (14 h, 5° C.). The surface was then removed and then incubated with mouse anti-A IgM antibodies (5° C., 14 h, 0.023 mg/mL, 50 μL). The surface was then removed, thoroughly washed with PBST and then treated with a secondary HRP conjugated goat anti-mouse IgM antibody (21° C., 3 h, 0.013 mg/mL, 50 μL). The surface was thoroughly washed with PBST to remove unbound antibody and then treated with a solution of SigmaFast OPD (200 μL, 1 h). An aliquot of this solution (100 μL) was then taken and the absorbance measured at 450 nm.

- attachment of antigen to silica-coated stainless steel after plasma incubation (modified ELISA, anti-A IgM, absorbance 450 nm) (pig A blood plasma): confirming the attachment
- attachment of antigen to silica-coated stainless steel after plasma incubation (modified ELISA, anti-A IgM, absorbance 450 nm) (pig O blood plasma): confirming the attachment
- attachment of antigen to silica-coated stainless steel after plasma incubation (modified ELISA, anti-A IgM, absorbance 450 nm) (pig-pooled O blood plasma): confirming the attachment
SMILES: CO[Si](CCCSCCCCCCCCO[C@@H]1O[C@H](CO)[C@@H](O)[C@H](O[C@@H]2O[C@H](CO)[C@H](O)[C@H](O[C@H]3O[C@H](CO)[C@H](O)[C@H](O)[C@H]3NC(C)=O)[C@H]2O[C@@H]2O[C@@H](C)[C@@H](O)[C@@H](O)[C@@H]2O)[C@H]1NC(C)=O)(OC)OC [I-14, 8-(3-(trimethoxysilyl)propylthio)octan-1-yl 2-N-Acetyl-3-O-(3-O-(2-N-acetyl-2-deoxy-α-D-galactopyranosyl)-2-O-(α-L-fucopyranosyl)-β-D-galactopyranosyl)-2-deoxy-β-D-glucopyranoside]
